Reference: ChEMBL document CHEMBL3044943, “Nematicidal prenylated flavanones from Phyllanthus niruri” (2008)
Values after ≈ are worked out from the molar mass of the structure shown.

Assays:
[1] = system: Rotylenchulus reniformis; experiment: Nematicidal activity against Rotylenchulus reniformis (reniform nematode) after 72 hr; assay type: functional
[2] = system: Meloidogyne incognita; experiment: Nematicidal activity against Meloidogyne incognita (root-knot nematode) second stage juveniles after 72 hr; assay type: functional

Row | Compound | LC50 [1] | LC50 [2]
1 | CC(C)=CCc1cccc2c1OC(c1ccccc1)CC2=O (stereo not given) | 103 µg/mL (≈ 352 µM) | 70.9 µg/mL (≈ 242 µM)
2 | CC(C)=CCc1cccc2c1OC(c1ccc(O)cc1)CC2=O (stereo not given) | 3.3 µg/mL (≈ 10.7 µM) | 14.5 µg/mL (≈ 47 µM)
3 | CNC(=O)Oc1cccc2c1OC(C)(C)C2 [CARBOFURAN] | 3.1 µg/mL (≈ 14 µM) | 
